Data taken from ChEMBL document CHEMBL5316265, “Discovery of Clinical Candidate AZD0095, a Selective Inhibitor of Monocarboxylate Transporter 4 (MCT4) for Oncology” (J Med Chem, 2023).
pIC50: −log10 of the molar value. Values after ≈ are worked out from the molar mass of the structure shown. Each block holds one molecule with its values, some of them ahead of it.

Assays:
[1] = Aqueous solubility of the compound in pH 7.4 buffer; type: physicochemical
[2] = Lipophilicity, logD of the compound at pH 7.4; type: physicochemical; details: buffer
[3] = molecular target: Voltage-gated inwardly rectifying potassium channel KCNH2 (Homo sapiens, UniProt Q12809); assay: Inhibition of human ERG; type: toxicity
[4] = Metabolic stability in rat hepatocytes measured per million cells; type: ADME, cell-based, Hepatocyte; details: read-out: CLH
[5] = Oral bioavailability in rat; type: ADME, organism-based; details: in vivo
[6] = Clearance in rat; type: ADME; details: in vivo
[7] = Metabolic stability in human hepatocytes measured per million cells; type: ADME, cell-based, Hepatocyte; details: read-out: CLH
[8] = molecular target: T1, Monocarboxylate transporter 4 (Homo sapiens, UniProt O15427); assay: Inhibition of MCT4 in human SK-BR-3 cells assessed as inhibition of lactate efflux incubated for 4 hrs by automated microplate reader analysis; type: cell-based
T1 sequence (O15427 whole entry): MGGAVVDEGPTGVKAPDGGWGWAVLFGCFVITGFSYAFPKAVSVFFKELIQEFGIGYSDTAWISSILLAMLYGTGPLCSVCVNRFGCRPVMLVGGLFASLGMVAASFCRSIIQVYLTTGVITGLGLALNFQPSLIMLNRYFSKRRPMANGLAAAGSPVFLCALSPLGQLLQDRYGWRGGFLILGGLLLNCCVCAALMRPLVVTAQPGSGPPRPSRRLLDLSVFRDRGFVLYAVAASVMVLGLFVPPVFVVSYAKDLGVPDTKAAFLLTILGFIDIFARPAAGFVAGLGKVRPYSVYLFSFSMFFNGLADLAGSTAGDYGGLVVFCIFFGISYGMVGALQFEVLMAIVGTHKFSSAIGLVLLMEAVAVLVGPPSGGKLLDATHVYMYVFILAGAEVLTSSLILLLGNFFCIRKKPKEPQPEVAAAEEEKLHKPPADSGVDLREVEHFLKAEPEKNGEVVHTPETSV

[9] = Efflux ratio of apparent permeability basolateral to apical side over apical to basolateral side in human Caco-2 cells; type: ADME, cell-based
[10] = Oral bioavailability in Wistar rat at 5 mg/kg; type: ADME, organism-based; details: in vivo
[11] = Thermodynamic solubility of the compound in FaSSIF using crystalline form of sample at pH 6.5; type: physicochemical; details: read-out: Therm_solubility
[12] = Toxicity in mouse assessed as body weight loss at 100 mg/kg BID administered twice daily for 17 days via oral gavage in presence of cediranib; type: organism-based; details: in vivo, 408 h, time 17 day
NCI-H358 = assay: Antiproliferative activity against human NCI-H358 cells assessed as cell growth inhibition; type: functional
[13] = Metabolic stability in human hepatocytes assessed as intrinsic clearance measured per million cells; type: ADME, cell-based, Hepatocyte; details: read-out: CLH
[14] = Apparent permeability of the compound across apical side to basolateral side in human Caco-2 cells; type: ADME, cell-based
[15] = Plasma protein binding in rat assessed as free fraction; type: ADME, cell-free
[16] = Clearance in Wistar rat at 2 mg/kg, iv; type: ADME, organism-based; details: in vivo
[17] = Oral bioavailability in Beagle dog at 2 mg/kg; type: ADME, organism-based, Canis lupus familiaris; details: in vivo
[18] = Plasma protein binding in dog assessed as free fraction; type: ADME, cell-free, Canis lupus familiaris
[19] = Metabolic stability in dog hepatocytes assessed as intrinsic clearance measured per million cells; type: ADME, cell-based, Canis lupus familiaris, Hepatocyte; details: read-out: CLH
[20] = molecular target: T2, Monocarboxylate transporter 1 (Homo sapiens, UniProt P53985); assay: Inhibition of MCT1 in human K562 cells assessed as inhibition of lactate efflux incubated for 1 hr by FLIPR method; type: cell-based
T2 sequence (P53985 whole entry): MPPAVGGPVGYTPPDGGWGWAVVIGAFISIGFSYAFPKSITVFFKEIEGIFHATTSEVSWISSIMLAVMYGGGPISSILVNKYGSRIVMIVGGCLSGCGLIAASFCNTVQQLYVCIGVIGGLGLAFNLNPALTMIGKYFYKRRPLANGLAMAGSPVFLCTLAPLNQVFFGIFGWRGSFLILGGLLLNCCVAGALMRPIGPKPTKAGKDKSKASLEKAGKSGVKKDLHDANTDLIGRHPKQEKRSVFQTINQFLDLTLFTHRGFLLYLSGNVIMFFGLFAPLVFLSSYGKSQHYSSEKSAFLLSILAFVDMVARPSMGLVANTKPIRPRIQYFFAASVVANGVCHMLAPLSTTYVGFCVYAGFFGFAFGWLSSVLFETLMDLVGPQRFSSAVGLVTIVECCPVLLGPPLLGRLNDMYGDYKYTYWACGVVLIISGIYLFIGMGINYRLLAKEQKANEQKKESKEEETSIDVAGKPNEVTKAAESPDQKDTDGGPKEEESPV

[21] = Toxicity in mouse assessed as body weight loss at 100 mg/kg BID administered twice daily for 17 days via oral gavage; type: organism-based; details: in vivo, 408 h, time 17 day
[22] = Clearance in Beagle dog at 1 mg/kg, iv; type: ADME, organism-based, Canis lupus familiaris; details: in vivo
[23] = Plasma protein binding in human assessed as free fraction; type: ADME, cell-free

Chain of Voltage-gated inwardly rectifying potassium channel KCNH2 (Q12809 whole entry): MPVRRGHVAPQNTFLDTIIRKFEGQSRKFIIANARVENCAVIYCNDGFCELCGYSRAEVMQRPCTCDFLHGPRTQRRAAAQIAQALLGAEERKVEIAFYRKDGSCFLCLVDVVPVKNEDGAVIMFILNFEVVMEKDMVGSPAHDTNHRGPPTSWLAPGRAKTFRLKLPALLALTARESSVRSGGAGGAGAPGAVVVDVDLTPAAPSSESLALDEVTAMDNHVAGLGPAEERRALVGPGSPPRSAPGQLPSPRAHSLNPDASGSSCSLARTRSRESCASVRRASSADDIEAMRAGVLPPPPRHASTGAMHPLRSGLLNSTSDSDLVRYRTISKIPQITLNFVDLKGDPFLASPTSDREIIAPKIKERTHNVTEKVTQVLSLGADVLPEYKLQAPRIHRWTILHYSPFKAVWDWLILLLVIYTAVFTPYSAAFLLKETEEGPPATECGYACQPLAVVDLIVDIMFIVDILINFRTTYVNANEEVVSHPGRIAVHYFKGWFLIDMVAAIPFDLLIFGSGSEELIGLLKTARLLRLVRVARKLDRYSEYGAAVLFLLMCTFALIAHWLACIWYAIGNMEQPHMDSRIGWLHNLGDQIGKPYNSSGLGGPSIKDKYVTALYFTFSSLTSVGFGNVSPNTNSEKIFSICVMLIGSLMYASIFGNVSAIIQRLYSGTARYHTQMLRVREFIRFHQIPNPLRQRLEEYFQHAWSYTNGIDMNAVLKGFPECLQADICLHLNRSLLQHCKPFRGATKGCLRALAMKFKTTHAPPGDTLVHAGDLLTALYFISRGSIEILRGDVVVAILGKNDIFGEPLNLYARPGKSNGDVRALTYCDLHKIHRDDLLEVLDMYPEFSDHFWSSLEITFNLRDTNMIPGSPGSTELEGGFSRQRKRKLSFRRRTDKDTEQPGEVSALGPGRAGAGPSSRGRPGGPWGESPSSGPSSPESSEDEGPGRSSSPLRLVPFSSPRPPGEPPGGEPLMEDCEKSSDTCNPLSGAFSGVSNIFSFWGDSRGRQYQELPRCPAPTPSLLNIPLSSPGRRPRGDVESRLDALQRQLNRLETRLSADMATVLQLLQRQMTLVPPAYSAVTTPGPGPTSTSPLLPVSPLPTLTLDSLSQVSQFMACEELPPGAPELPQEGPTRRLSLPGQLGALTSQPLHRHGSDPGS

solubility [1]: 2 µM (≈ 0.771 µg/mL)
logD [2]: 3.4
Compound: Cc1nc2nc(C)c(CCNC(=O)c3ccc(-c4ccccc4)cc3)c(C)n2n1

solubility [1]: > 300 µM
logD [2]: 1.9
Compound: Cc1nc2nc(C)c(CCNC(=O)c3cnc(-c4ccc([C@@H]5COCCN5C)cc4)cn3)c(C)n2n1

logD [2]: 2.3
Compound: Cc1nc2nc(C)c(C[C@@H]3CCN(c4ccc(-c5ccc(CN6CCOCC6)nn5)cc4)C3)c(C)n2n1
pIC50 [3]: 4.89

logD [2]: 3.7
Compound: Cc1nc2ncnn2c(C)c1CCC(=O)Nc1nnc(-c2ccc(C(C)C)cc2)s1

solubility [1]: 224 µM (≈ 109 µg/mL)
logD [2]: 1.9
Compound: Cc1nc2nc(C)c(CCNC(=O)c3cnc(-c4ccc([C@H]5COCCN5C)cc4)cn3)c(C)n2n1

solubility [1]: 3 µM (≈ 1.16 µg/mL)
logD [2]: 2.4
Compound: Cc1nc2nc(C)c(CCNC(=O)c3cnc(-c4ccccc4)cn3)c(C)n2n1

hepatocyte CLint [4]: < 2 µL/min/1e6 cells
logD [2]: 2
bioavailability [5]: 61%
clearance [6]: 29 mL/min/kg
hepatocyte CLint [7]: 1.9 µL/min/1e6 cells
Compound: Cc1nc2nc(C)c(C[C@@H]3CCN(c4cnc(-c5ccc(CN6CCN(C)CC6)cc5)cn4)C3)c(C)n2n1
pIC50 [3]: < 4.62

logD [2]: 2.8
Compound: Cc1nc2nc(C)c(CCC(=O)Nc3nnc(-c4ccccc4)s3)c(C)n2n1

logD [2]: 1.4
Compound: CC(=O)N1CCN(Cc2ccc(-c3ccc(N4CC[C@@H](Oc5c(C)nc6nc(C)nn6c5C)C4)cc3)nn2)CC1
pIC50 [3]: < 4.48

logD [2]: 1.4
Compound: Cc1nc2nc(C)c(O[C@@H]3CCN(c4ccc(-c5ccc(CN6CCN(C)CC6)nn5)cc4)C3)c(C)n2n1
pIC50 [3]: < 4.48

logD [2]: 2.5
Compound: Cc1nc2nc(C)c(CCNC(=O)c3nnc(-c4ccccc4)s3)c(C)n2n1

logD [2]: 2.7
Compound: Cc1nc2nc(C)c(C[C@@H]3CCN(c4ccc(-c5cnc(CN6CCOCC6)cn5)cc4)C3)c(C)n2n1

hepatocyte CLint [4]: 13 µL/min/1e6 cells
logD [2]: 2.6
bioavailability [5]: 47%
clearance [6]: 53 mL/min/kg
pIC50 [8]: > 9.42
efflux ratio [9]: 1.1
hepatocyte CLint [7]: 3.4 µL/min/1e6 cells
Compound: Cc1nc2nc(C)c(C[C@@H]3CCN(c4cnc(-c5ccc(CN6CCOCC6)cc5)cn4)C3)c(C)n2n1
pIC50 [3]: 5.74

logD [2]: 2.5
Compound: Cc1nc2ncnn2c(C)c1CCC(=O)Nc1nnc(-c2ccccc2)s1

logD [2]: 1.8
Compound: Cc1nc2nc(C)c(C[C@@H]3CCN(c4ccc(-c5ccc(CN6CCN(C)CC6)nn5)cc4)C3)c(C)n2n1
pIC50 [3]: < 4.48

solubility [1]: 138 µM (≈ 67.1 µg/mL)
hepatocyte CLint [4]: 17 µL/min/1e6 cells
logD [2]: 1.8
bioavailability [5]: 34%
clearance [6]: 31 mL/min/kg
hepatocyte CLint [7]: 2.5 µL/min/1e6 cells
Compound: Cc1nc2nc(C)c(CCNC(=O)c3cnc(-c4ccc(CN5CCOCC5)cc4)cn3)c(C)n2n1
pIC50 [3]: 4.62

bioavailability [10]: 106%
solubility thermodynamic [11]: 839 µM (≈ 420 µg/mL)
logD [2]: 1.8
GI50 (NCI-H358): 26 nM
hepatocyte CLint [13]: 1.9 µL/min/1e6 cells
Papp A→B [14]: 13 ×10⁻⁶ cm/s
fraction unbound [15]: 0.3
clearance [16]: 15 mL/min/kg
bioavailability [17]: 84%
fraction unbound [18]: 0.39
hepatocyte CLint [19]: 3.3 µL/min/1e6 cells
pIC50 [20]: < 4.52
clearance [22]: 14 mL/min/kg
fraction unbound [23]: 0.32
Compound: Cc1nc2nc(C)c(O[C@@H]3CCN(c4ccc(-c5ccc(CN6CCOCC6)nn5)cc4)C3)c(C)n2n1
pIC50 [3]: 4.54
Activity [12]: Non-Toxic
Activity [21]: Non-Toxic
